ChEMBL document CHEMBL1136661, “Interfacial peptide inhibitors of HIV-1 integrase activity and dimerization” (Bioorg Med Chem Lett, 2003)

Target: Human immunodeficiency virus type 1 integrase (Human immunodeficiency virus 1, UniProt Q7ZJM1)
Assay: Inhibitory activity of compound against HIV-1 integrase

Sequence of Human immunodeficiency virus type 1 integrase (Q7ZJM1 whole entry): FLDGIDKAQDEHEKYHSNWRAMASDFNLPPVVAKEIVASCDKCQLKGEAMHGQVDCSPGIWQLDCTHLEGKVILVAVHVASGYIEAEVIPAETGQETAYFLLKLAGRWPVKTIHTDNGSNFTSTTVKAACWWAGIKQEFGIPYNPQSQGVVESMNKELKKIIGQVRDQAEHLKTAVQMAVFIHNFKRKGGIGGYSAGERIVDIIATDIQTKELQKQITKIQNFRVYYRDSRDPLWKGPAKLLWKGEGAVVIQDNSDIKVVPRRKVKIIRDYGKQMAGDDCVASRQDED

| Molecule | IC50 [µM] |
| --- | --- |
| CC[C@@H](C)[C@H](NC(=O)[C@H](CCCNC(=N)N)NC(=O)[C@H](CCC(=O)O)NC(=O)CNC(=O)[C@H](C)N)C(=O)N[C@H](C(=O)N[C@@H](CC(=O)O)C(=O)N[C@H](C(=O)N[C@H](C(=O)N[C@@H](C)C(N)=O)[C@@H](C)CC)[C@@H](C)CC)C(C)C | 30 |
| H-AGERIVDIIATDIQ-NH2 | 2 |
| H-GYIEAEVI-NH2 | > 1000 |
| H-HLKTAVQMAVFIHNFKR-NH2 | 3 |
| H-QETAYFLLKLAGR-NH2 | 150 |
| H-QETAYFLLKLAGRWP-NH2 | 35 |
| H-STTVKAASWWA-NH2 | > 1000 |
